Some test systems named below: SF-539 CNS; HCT-15 colon; MDA-MB-435; SK-MEL-28 melanoma; BT-549 breast; MCF7 breast; CCRF-CEM leukemia; PC-3 prostate; T-47D breast; HT29 colon.
Assay in all cases: inhibition of tumour cell growth, NCI panel, 48 h

Results on two molecules are retold here after PubChem BioAssay (NCI).

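Where inhibition never reached the appropriate level, the endpoint shown equals the highest concentration tested. Otherwise, values were interpolated linearly from a five-concentration, 48-hour dose response in 96-well plates. Abbreviation: GI50, concentration required for 50% inhibition of growth. TGI denotes the concentration required for complete inhibition of growth.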

Turning to `OC(COc1cccc2ccccc12)CN1CCN(c2ccc(Cl)cc2)CC1` (stereo unspecified), the GI50 in the test on SF-539 CNS was 22.6 µM; with HCT-15 colon, over 100 µM; with MDA-MB-435 it was 38.8 µM; in the test on SK-MEL-28 melanoma it was 26.9 µM; in the test on BT-549 breast it was over 100 µM; with MCF7 breast, 29.9 µM. The GI50 was over 100 µM with CCRF-CEM leukemia, 15.3 µM with PC-3 prostate, 81.3 µM with T-47D breast and 16.6 µM with HT29 colon. Besides, the TGI in the test with SF-539 CNS is 68.5 µM; in the test with HCT-15 colon, over 100 µM; in the test on MDA-MB-435 it was over 100 µM; in the test on SK-MEL-28 melanoma, 71.6 µM; in the test on BT-549 breast it was over 100 µM; in the test on MCF7 breast, over 100 µM. Further, the TGI with CCRF-CEM leukemia is over 100 µM; in the test with PC-3 prostate it was 46.2 µM; in the test on T-47D breast, over 100 µM; in the test with HT29 colon, 77.6 µM.

On to `[C-]#[O+].[C-]#[O+].[Ir].[O-]c1ccc2ccccc2c1N=Nc1ccccc1`, for which the TGI in the test on SF-539 CNS was 50.4 µM; with HCT-15 colon it was 19.8 µM; in the test with MDA-MB-435, 54.4 µM; with SK-MEL-28 melanoma, 24.7 µM; in the test on BT-549 breast, 40.1 µM; in the test on MCF7 breast, 21 µM. In addition, the TGI came out at 7.42 µM in the test with CCRF-CEM leukemia, 54 µM in the test with PC-3 prostate, 33.5 µM with T-47D breast and 20.6 µM in the test with HT29 colon. In the test on T-47D breast, the GI50 was 11.9 µM.
